Reference: US7741346B2, “Angiogenesis inhibitor” (Santen Pharmaceutical Co., Ltd., priority 2001, dated 2010)

Legend:
[1] = system: normal human umbilical vein endotherial cells (HUVEC); experiment: VEGF-induced HUVEC proliferation (in vitro angiogenesis inhibition test); type: cell-based; details: 10 μM test compound, 10 ng/ml VEGF, three days after adding VEGF, WST-8 absorbance at 450 nm; for Inhibitory rate (%) (cell growth inhibitory rate to the control): 10 µM; for inhibition at 10 µM: Homo sapiens, HUVEC, 72 h, read-out: Inhibitory rate (%) (cell growth inhibitory rate to the control)
Experimental: (1) Angiogenesis Inhibition Tests Using Human Endothelial Cells
The effects of the present compounds on the in vitro angiogenesis were evaluated by using vascular endothelial growth factor (VEGF)-induced normal human umbilical vein endotherial cells (HUVEC) proliferation system (Cancer Res., 59, 99-106 (1999)), wherein inhibitory effects of drugs on cell growth reactions induced by treating HUVEC with VEGF as an in vitro angiogenesis evaluation model.
The present compound was dissolved in DMSO and then diluted with a medium to prepare 40 μM test compound solution.
2×10^3 cells/well of HUVEC was seeded onto a type I collagen coated 96-well plate. After one day, 25 μl of the 40 μM test compound solution and a 0.8% DMSO solution as a control were added to each well (final concentration; 10 μM of the test compound and 0.2% of DMSO). One hour after adding the test compound, 25 μl of 40 ng/ml VEGF solution was added to each well(final concentration; 10 ng/ml of VEGF). Three days after adding VEGF, a WST-8 assay reagent (manufactured by Dojin Chemical Co., Ltd.) was added to each well in an amount of 10 μl, and absorbance at 450 nm was measured.
Calculating cell growth inhibitory rates (%) to the control, angiogenesis inhibitory rates of almost all of the test compounds were 80% or higher.

melting point [°C]	Compound	Inhibitory rate (%) (cell growth inhibitory rate to the control) [1]	inhibition at 10 µM [1] [%]
–	CCCCCN(CCC12CC3CC(CC(C3)C1)C2)C(=O)NCC(C)Cc1ccncc1 (single isomer, unassigned; (-)) [Compound No. 1-120, (−)-1-[2-(1-Adamantyl)ethyl]-3-[2-methyl-3-(4-pyridyl)propyl]-1-pentylurea]	–	83.1
–	CCCCCN(CCC12CC3CC(CC(C3)C1)C2)C(=O)NCCCc1ccncc1 [Compound No. 1-1, 1-[2-(1-Adamantyl)ethyl]-1-pentyl-3-[3-(4-pyridyl)propyl]urea]	–	83.4
107.5 to 109	O=C(NCCCc1ccncc1)N(CCC(F)(F)F)CCC12CC3CC(CC(C3)C1)C2 [Compound No. 1-24, 1-[2-(1-Adamantyl)ethyl]-3-[3-(4-pyridyl)propyl]-1-(3,3,3-trifluoropropyl)urea]	–	82.1
89.5 to 93.5	CC=CCN(CCC12CC3CC(CC(C3)C1)C2)C(=O)NCCCc1ccncc1 [Compound No. 1-25, 1-[2-(1-Adamantyl)ethyl]-1-(2-butenyl)-3-[3-(4-pyridyl)propyl]urea]	–	83.2
–	CN(CCN(CCC12CC3CC(CC(C3)C1)C2)C(=O)NCCCc1ccncc1)C(=O)OC(C)(C)C [Compound No. 1-26, 1-[2-(1-Adamantyl)ethyl]-[2-[N-(t-butoxycarbonyl)-N-methylamino]ethyl]-3-[3-(4-pyridyl)propyl]urea]	–	79.2
–	CCCN(CCCC12CC3CC(CC(C3)C1)C2)C(=O)NCCCc1ccncc1 [Compound No. 1-35, 1-[3-(1-Adamantyl)propyl]-1-propyl-3-[3-(4-pyridyl)propyl]urea]	–	83.7
–	CCCCCN(CCC12CC3CC(CC(C3)C1)C2)C(=O)NCC(C)Cc1ccncc1 (centres unmarked) [Compound No. 1-100, 1-[2-(1-Adamantyl)ethyl]-3-[2-methyl-3-(4-pyridyl)propyl]-1-pentylurea]	83.0	–
–	CC(CNC(=O)N(CCN(C)C(=O)OC(C)(C)C)CCC12CC3CC(CC(C3)C1)C2)Cc1ccncc1 (centres unmarked) [Compound No. 1-107]	–	83.2
–	CCCCCN(CCC12CC3CC(CC(C3)C1)C2)C(=O)NC/C=C\c1ccncc1 [Compound No. 1-111, (Z)-1-[2-(1-Adamantyl)ethyl]-1-pentyl-3-[3-(4-pyridyl)-2-propenyl]urea]	–	83.1
90 to 118	CCCCCN(CCC12CC3CC(CC(C3)C1)C2)C(=O)NC/C=C/c1ccncc1 [Compound No. 1-112, (E)-1-[2-(1-Adamantyl)ethyl]-1-pentyl-3-[3-(4-pyridyl)-2-propenyl]urea]	–	83.2
–	CCCCCN(CCC1CCCCC1)C(=O)NCC(C)Cc1ccncc1 (centres unmarked) [Compound No. 1-118, 1-(2-Cyclohexylethyl)-3-[2-methyl-3-(4-pyridyl)propyl]-1-pentylurea]	–	81.6
128.5 to 129	CCCCCN(CCC12CC3CC(CC(C3)C1)C2)C(=O)NC(C)CCc1ccncc1 (centres unmarked) [Compound No. 1-137, 1-[2-(1-Adamantyl)ethyl]-3-[1-methyl-3-(4-pyridyl)propyl]-1-pentylurea]	–	83.3
–	CCCCCN(CCC12CC3CC(CC(C3)C1)C2)C(=O)CCCCc1ccncc1 [Compound No. 2-14, 5-(4-Pyridyl)valeric acid N-[2-(1-adamantyl)ethyl]-N-pentylamide]	–	83.4
–	CCCCCN(CCC12CC3CC(CC(C3)C1)C2)C(=O)CCSCc1ccncc1 [Compound No. 2-15, 3-(4-Pyridylmethylthio)propionic acid N-[2-(1-adamantyl)ethyl]-N-pentylamide]	–	83.3
–	CCCCCN(CCC12CC3CC(CC(C3)C1)C2)C(=O)CSCCc1ccncc1 [Compound No. 2-18, 2-[2-(4-Pyridyl)ethylthio]acetic acid N-[2-(1-adamantyl)ethyl]-N-pentylamide]	–	82.2
–	CCCCCN(CCC12CC3CC(CC(C3)C1)C2)C(=O)CCCCCc1ccncc1 [Compound No. 2-20, 6-(4-Pyridyl)caproic acid N-[2-(1-adamantyl)ethyl]-N-pentylamide]	–	82.5
101 to 102.59	O=C(NCCCc1ccncc1)N(O)CCC12CC3CC(CC(C3)C1)C2 [Compound No. 12-1, 1-[2-(1-Adamantyl)ethyl]-1-hydroxy-3-[3-(4-pyridyl)propyl]urea]	–	–
97.8 to 127	CCCCCN(CCC12CC3CC(CC(C3)C1)C2)C(=O)NCCCc1cc[n+]([O-])cc1 [Compound No. 16-1, 4-[3-[3-[2-(1-Adamantyl)ethyl]-3-pentylureido]propyl]pyridine N-oxide]	–	–
96.8 to 104.9	CCNCCN(CCC12CC3CC(CC(C3)C1)C2)C(=O)NCCCc1ccncc1 [Compound No. 20-1, 1-[2-(1-Adamantyl)ethyl]-1-[2-(N-ethylamino)ethyl]-3-[3-(4-pyridyl)propyl]urea]	–	–
103.5 to 104	CCCCCN(CCC12CC3CC(CC(C3)C1)C2)C(=O)NCCC(=O)c1ccncc1 [Compound No. 31-1, 1-[2-(1-Adamantyl)ethyl]-3-[3-oxo-3-(4-pyridyl)propyl]-1-pentylurea]	–	–

Compound	melting point [°C]	Inhibitory rate (%) (cell growth inhibitory rate to the control) [1]	inhibition at 10 µM [1] [%]
CC(CNC(=O)N(CCN(C)C(=O)OC(C)(C)C)CCC12CC3CC(CC(C3)C1)C2)Cc1ccncc1 (single isomer, unassigned; (+)) [Compound No. 1-139, (+)-1-[2-(1-Adamantyl)ethyl]-1-[2-[N-(t-butoxycarbonyl)-N-methylamino]ethyl]-3-[2-methyl-3-(4-pyridyl)propyl]urea]	122.7 to 123.7	83.1	–
